Assay results reported in patent US6369294B1, “Methods comprising apoptosis inhibitors for the generation of transgenic pigs” (Texas A&M University System, priority 1996, dated 2002).
Where “and” joins values, the source holds several entries; their conditions need not be identical. Equal values may be shown once.

What was measured:
[1] = test system: porcine primordial germ cells; assay: Isolation of porcine primordial germ cells with bFGF; format: cell-based
Description: (§1) STO feeder cells were plated in PES media alone for 48 hours or in PES media containing 40 ng/ml bFGF for the same period of time. […] It is not presently known whether bFGF is acting directly on the proliferation rate of the PGCs or whether the effect is through a change in the physiology of the STO cells which then effects the PGCs.
Thirdly, when low density feeders are used to culture porcine PGCs, very few colonies grow and the few that do grow are always in direct contact with the feeder cells. No colonies grow on the plastic, even if surrounded by STO cells. Thus it is unlikely that the STO's are producing a soluble factor. Additionally, to isolate porcine PGC-derived cells, it is an absolute requirement that bFGF be added to the feeders. The bFGF drastically changes the morphology of the feeder cells. Thus the bFGF may be acting on the feeder to promote/inhibit production of a matrix component versus acting directly on the PGC cells. Also, very few colonies are obtained when plating porcine PGCs on feeders made within 6 hours. However, feeders made 24 hours prior to plating yield much better results. Thus this period of time may be required for synthesis and secretion of some matrix component.

STO feeder cells = STO feeder cells plated with or without bFGF, morphology; format: cell-based, mouse; details: PES media containing 40 ng/ml bFGF for 48 hours
Description: as §1

bovine PGC's = assay: Third passage bovine PGC colonies with or without α2-macroglobulin (preliminary study); format: cell-based
Text: The ability of colonies cultured and passaged in the presence or absence of α2-macroglobulin to survive in an undifferentiated state for multiple passages is currently being studied. In a preliminary study twice as many colonies were obtained from third passage bovine PGC's (22 versus 45) cultured in media with α2-macroglobulin than in media without the protease inhibitor. Moreover, the colonies appear on average 2-3 days earlier and are of larger size when cultured in the presence of α2-macroglobulin.

cultured PGCs = assay: Passage of cultured PGCs in presence or absence of α2-macroglobulin, alkaline phosphatase positive colonies; format: cell-based
Text: The effect of α2-macroglobulin on the ability to passage cells was also studied. To test the ability of α2-macroglobulin to protect against the losses normally observed when cultured PGCs are trypsinized, cells were passaged twice in the presence or absence of α2-macroglobulin, the colonies fixed, stained for alkaline phosphatase and the number of alkaline phosphatase positive colonies determined. PGCs were collected in PES and plated on feeder layers in the presence or absence of media containing 1 μg/ml α2-macroglobulin. Colonies were allowed to grow for 7 days, trypsinized as described above and plated again in media with or without α2-macroglobulin. Samples were done in duplicate and corrected for the number of added cells.

PGC [2] = assay: Optimal concentration of α2-macroglobulin: ratio of AP positive colonies to control samples; format: cell-based; details: for ratio of AP positive colonies compared to control samples: three trials
Description: An additional study was performed to determine the optimal concentration of α2-macroglobulin. The ratio of AP positive colonies in samples containing either 1 μg/ml or 0.5 μg/ml as compared to control samples was determined for three trials. The ratios at 1 μg/ml were 0.81±0.37, 0.84±0.23 and 0.83±0.27, while at 0.5 μg/ml they were 1.98±0.36, 1.43±0.27 and 1.70±0.41.

PGCs = assay: Effect of isolation procedure and α2-macroglobulin on PGCs developing into alkaline phosphatase positive colonies; format: cell-based, pig; details: α2-macroglobulin 1 μg/ml; for alkaline phosphatase positive colonies (replicates R1-R3): counted six days later
Description: Genital ridges from two day 25-27 pig fetuses were collected, divided into four groups (a 2×2 study), placed in PES media either with α2-macroglobulin at 1 μg/ml (2 groups) or without α2-macroglobulin (2 groups), and immediately either needle teased to allow colonies to seep out (2 groups) or macerated (2 groups) with the help of a syringe. Briefly, the ridges were broken into small pieces by pressing them against the bottom of a dish with the back of a syringe. The disrupted tissues were further broken up by passing them several times through a 20 gauge needle until all large tissue clumps had been disrupted. Following tissue disruption, samples were centrifuged for 3-5 minutes at 250×g to settle tissue fragments and supernatant containing mostly single cells collected and centrifuged at 1000×g for 5 min. The resulting pellet was resuspended in PES containing LIF, SCF, and bFGF with or without human α2-macroglobulin, cells counted, and plated in triplicate in feeder layers.
Six days later colonies were fixed, stained for alkaline phosphatase activity, and counted.

porcine ICM (pICM) = assay: In vitro differentiation assay of cultured porcine inner cell mass, graded 1 to 5; format: cell-based; details: for differentiation score on day two, study 2: scale 1 (fully undifferentiated) to 5 (fully differentiated), p<0.05
Text: The inventors have developed a grading system to detect changes in the differentiation status of in vitro cultured PGC cells or the pICM. In the first study porcine ICMs (day 7) were isolated by immunosurgery and cultured 4 days in DMEM-based medium (D medium) or DMEM/Hams F-10 (1:1)-based medium (D/H medium) with or without human leukemia inhibitory factor (hLIF; 1000 μ/ml). For the second study pICMs were collected as above and cultured 4 days in one of six treatments: control medium, human leukemia inhibitory factor (hLIF; 1000 μ/ml), human interleukin-6 (hIL-6; 100 ng/ml), hIL-6+hIL-6 soluble receptor (hIL6+sR; 100 ng/ml+2.5 μg/ml), human oncostatin M (hOSM; 100 ng/ml), or rat ciliary neurotrophic factor (rCNTF; 100 ng/ml). All cytokines were prepared in Dulbecco's Modified Eagles Medium/Hams F-10 (1:1)-based medium. The colonies were photographed daily for morphological analysis.
pICMs were categorized into one of two types based on their morphological profile: type A, non-epithelial or type B, epithelial-like. The pICM differentiation was evaluated using standardized differentiation profiles. Each pICM series was graded on a scale of 1 (fully undifferentiated) to 5 (fully differentiated) for each time point. Differentiation was verified by alkaline phosphatase activity, cytokeratin staining, and scanning electron microscopy. […] Furthermore, addition of rCNTF gave the lowest overall mean differentiation score (2.53±0.15). […] The grading system employed was thus an effective tool for detecting treatment effects on differentiation of the developing pICM.

PGC [3] = assay: Addition of uteroferrin or uteroferrin rose to PGC culture media; format: cell-based
Description: The pellet, containing PGCs, was resuspended in PES media Following collection, the cells were rinsed 3 times by centrifugation and resuspended in PEG medium containing soluble recombinant human stem cells factor at 30 ng/ml, human basic fibroblast growth factor at 40 ng/ml, and LIF at 20 ng/ml and plated onto STO feeder layers. Additionally, the effect of the addition of 100 ng/ml of uteroferrin in the presence or absence of stem cell factor on the number of alkaline phosphatase positive colonies was determined.
In order to determine the beneficial effect provided by the serpin alone, a broad range protease inhibitor called α2-macroglobulin was studied (Feige et al., 1996).

[4] = rCNTF 100 ng/ml, hLIF 1000 μ/ml

With bFGF: basic fibroblast growth factor the “requirement for the isolation of porcine primordial germ cells” value [1] was “essential component for the isolation of porcine primordial germ cells” and the “change in morphology of the feeder cells” value (STO feeder cells) was “drastic change is seen in the morphology of the feeder cells”.

In the case of “α2-macroglobulin: broad range protease inhibitor; apoptosis inhibitor added to PGC culture media at 1 μg/ml”, the “number of colonies from third passage bovine PGC's” value (bovine PGC's; media with α2-macroglobulin, 22 without) is reported as 45, the “colonies appear earlier than without α2-macroglobulin” value (bovine PGC's; on average) is reported as 2 to 3 days and the “Normalized value” (cultured PGCs; 1st passage +, 2nd passage +) is reported as 2052 colonies per 1000 colonies plated. For the same molecule, the “Normalized value” (cultured PGCs; 1st passage +, 2nd passage −) was 1512 colonies per 1000 colonies plated, the “Normalized value” (cultured PGCs; 1st passage −, 2nd passage +) was 1422 colonies per 1000 colonies plated and the “Normalized value” (cultured PGCs; first passage, media with 1 μg/ml α2-macroglobulin) was 22028 colonies per million cells. The “factor by which the lower dose is more effective in generating AP positive colonies” value (PGC [2]; 0.5 μg/ml versus 1 μg/ml) was ~2, the “ratio of AP positive colonies compared to control samples” value (PGC [2]; α2-macroglobulin 0.5 μg/ml) was 1.98±0.36 and 1.43±0.27 and 1.70±0.41 and the “ratio of AP positive colonies compared to control samples” value (PGC [2]; α2-macroglobulin 1 μg/ml) was 0.81±0.37 and 0.84±0.23 and 0.83±0.27. For the same molecule, the Normalized value (PGCs; pig 1, macerate) was 16395 colonies per million cells, the “alkaline phosphatase positive colonies (replicates R1-R3)” value (“alkaline phosphatase positive colonies” for short) (PGCs; pig 1, macerate) was 4712 and 5176 and 4368 and the Normalized value (PGCs; pig 1, teasing) was 18087 colonies per million cells. For the same molecule, the “alkaline phosphatase positive colonies” value (PGCs; pig 1, teasing) was 4688 and 4960 and 5424, the Normalized value (PGCs; pig 2, macerate) was 35865 colonies per million cells and the “alkaline phosphatase positive colonies” value (PGCs; pig 2, macerate) was 8312 and 7872 and 8896. The Normalized value (PGCs; pig 2, teasing) was 37380 colonies per million cells and the “alkaline phosphatase positive colonies” value (PGCs; pig 2, teasing) was 6200 and 6008 and 6864.

In the case of hLIF: human leukemia inhibitory factor, the “delay of differentiation of the developing pICM, study 1” value (porcine ICM (pICM); hLIF 1000 μ/ml, D or D/H medium, 4 days, p=0.08) is reported as “neither hLIF nor culture medium delayed differentiation” and the “differentiation score on day two, study 2” value (porcine ICM (pICM); [4]) is reported as 2.70±0.16.

B1: uteroferrin: purple colored, progesterone-induced iron-containing glycoprotein secreted by uterine endometrial epithelium of pigs (protein, UniProt P09889 21-340, looked up)
Tartrate-resistant acid …: GTRTNTRTAPTPILRFVAVGDWGGVPNAPFHTAREMANAKAIATTVKTLGADFILSLGDNFYFTGVHDAKDKRFQETFEDVFSDPSLRNVPWHVLAGNHDHLGNVSAQIAYSKISKRWNFPSPYYRLRFKIPRSNVSVAIFMLDTVTLCGNSDDFVSQQPERPRNLALARTQLAWIKKQLAAAKEDYVLVAGHYPVWSIAEHGPTHCLVKQLLPLLTTHKVTAYLCGHDHNLQYLQDENGLGFVLSGAGNFMDPSKKHLRKVPNGYLRFHFGAENSLGGFAYVEITPKEMSVTYIEASGKSLFKTKLPRRARSEHQHRRA
For B1, the “effect on the number of resulting PGC colonies” value (PGC [3]) was “some improvement”.

B2: rCNTF: rat ciliary neurotrophic factor (protein, UniProt P20294 1-200, looked up)
Ciliary neurotrophic factor: MAFAEQTPLTLHRRDLCSRSIWLARKIRSDLTALMESYVKHQGLNKNINLDSVDGVPVASTDRWSEMTEAERLQENLQAYRTFQGMLTKLLEDQRVHFTPTEGDFHQAIHTLMLQVSAFAYQLEELMVLLEQKIPENEADGMPATVGDGGLFEKKLWGLKVLQELSQWTVRSIHDLRVISSHQMGISALESHYGAKDKQM
In the case of B2, the “differentiation score on day two, study 2” value (porcine ICM (pICM); [4]) is reported as 2.07±0.15 and the “overall mean differentiation score, study 2” value (porcine ICM (pICM); scale 1 to 5, 4 day culture, rCNTF 100 ng/ml) is reported as 2.53±0.15.
